Data as given in US20160237032A1, “PROCESS TO MANUFACTURE N-[(3S)-1-[4-[(3-FLUOROPHENYL)METHOXY]PHENYL]-5-OXO-PYRROLIDIN-3-YL]ACETAMIDE” (Hoffmann-La Roche Inc., priority 2013, published 2016).

Test: thermodynamic stability of polymorphic forms
Type: physicochemical
Details: at room temperature

thermodynamic stability of the crystal form: thermodynamically stable form
Structure (SMILES): CC(=O)N[C@H]1CC(=O)N(c2ccc(OCc3cccc(F)c3)cc2)C1 [Polymorph B, N-[(3S)-1-[4-[(3-fluorophenyl)methoxy]phenyl]-5-oxo-pyrrolidin-3-yl]acetamide]
